From patent US20080280953A1, “Agents Used for the Treatment of Seeds” (Bayer Cropscience AG, priority 2004, published 2008)

Assays:
Format in all cases: in vivo
[1] = tested on: green peach aphid (Myzus persicae); test: Myzus test (spray treatment), Chinese cabbage leaf sections; details: for pest or weed control at 500 g/ha: Myzus persicae, 120 h, after 5 d, read-out: Death rate in % after 5 d; for activity after 5 days: 500 g/ha
Method: (§1) To prepare a suitable active compound preparation 1 part by weight of the active compound is mixed with the given amount of solvent and emulsifier and the concentrate is diluted to the desired concentration with water containing emulsifier.
Chinese cabbage leaf sections (Brassica pekinensis) infested with all stages of the green peach aphid (Myzus persicae) are sprayed with an active compound preparation at the desired concentration.
After the desired time the activity in % is determined. Here 100% means that all aphids were killed; 0% means that no aphids were killed.

[2] = tested on: cotton aphid (Aphis gossypii); test: Aphis gossypii test, immersion of cotton leaves; details: 100 g/ha (so in the source), cotton leaves immersed
Method: as §1
Cotton plant leaves (Gossypium hirsutum) heavily infected with the cotton aphid (Aphis gossypii) are treated by immersing in the active compound preparation at the desired concentration. After the desired time the death rate in % is determined. Here 100% means that all aphids were killed; 0% means that no aphids were killed.

[3] = tested on: rice brown plant hopper (Nilaparvata lugens); test: Nilaparvata lugens test; hydroponic treatment (NILALU SYS); details: 500 g/ha
Method: To prepare a suitable active compound preparation I part by weight of the active compound is mixed with the given amount of solvent and emulsifier and the concentrate is diluted to the desired concentration with water containing emulsifier.
The active compound preparation is pipetted into water. […] Infection is then carried out with rice brown plant hopper (Nilaparvata lugens).
After the desired time the activity in % is determined. Here 100% means that all plant hoppers were killed; 0% means that no plant hoppers were killed.

[4] = tested on: eggs of the cotton boll worm (Heliotis virescens); test: Heliothis virescens test (spray treatment); details: 500 g/ha, spray on soy bean leaves
Method: as §1
Soy bean leaves (Glycine max.) are sprayed with an active compound preparation at the desired concentration and after drying were infected with eggs of the cotton boll worm (Heliotis virescens).
After the desired time the activity in % is determined. Here 100% means that all eggs were killed; 0% means that no eggs were killed.

[5] = tested on: caterpillars of the fall army worm (Spodoptera frugiperda); test: Spodoptera frugiperda test (spray treatment); details: 500 g/ha
Method: as §1
Maize leaf sections (Zea mays) are sprayed with an active compound preparation at the desired concentration and after drying treated with caterpillars of the fall army worm (Spodoptera frugiperda).
After the desired time the activity in % is determined. Here 100% means that all caterpillars were killed; 0% means that no caterpillars were killed.

[6] = tested on: Lucilia cuprina larvae; test: Fly larvae test; details: 100 ppm
Method: 10 mg active compound were dissolved in 0.5 ml dimethylsulphoxide. To prepare a suitable formulation the active compound solution is diluted with water to the respective desired concentration.
About 20 Lucilia cuprina larvae are placed in a test tube that contains ca. 1 cm^3 horse flesh and 0.5 ml of the active compound preparation under test.
After the desired time the death rate in % is determined. Here 100% means that all larvae were killed; 0% means that no larvae were killed.

[7] = tested on: green peach aphid (Myzus persicae); test: Myzus persicae test (hydroponic treatment); details: pea plant; for activity after 7 days: 20 ppm
Method: To prepare a suitable active compound preparation 1 part by weight of the active compound is mixed with the given amount of solvent and emulsifier and the concentrate is diluted to the desired concentration with water.
The active compound preparation is mixed with water. The concentration given refers to the amount of active compound per unit volume water (mg/l=ppm). The treated water is placed into a vessel with one pea plant (Pisum sativum). After the prescribed time infection with the green peach aphid (Myzus persicae) is carried out.
After the desired time the death rate in % is determined. Here 100% means that all aphids were killed; 0% means that no aphids were killed.

[8] = tested on: eggs of the diamond back moth (Plutella xylostella); test: Plutella test, artificial diet; details: 1000 g/ha (so in the source), on artificial diet
Method: To prepare a suitable active compound preparation 1 part by weight active compound was mixed with the given amount of solvent and the concentrate was diluted to the desired concentration with methanol.
A given amount of active compound preparation at the desired concentration is pipetted onto a standardised amount of artificial diet. After the methanol has evaporated ca. 200-300 eggs of the diamond back moth (Plutella xylostella) are added to the diet.
After the desired time the death rate of the eggs and larvae, respectively, in % is determined. Here 100% means that all animals were killed; 0% means that no animals were killed.

[9] = tested on: adult engorged females of Boophilus microplus (strain Parkhurst-SP resistant); test: Test with resistant monoxenous cattle ticks/SP-resistant Parkhurst strain, injection method; details: 20 μg/animal injected into the abdomen
Method: 10 mg of the active compound are dissolved in 0.5 ml dimethylsulphoxide, lower concentrations are prepared by dilution with the same solvent.
The test is carried out five times. 1 μl is injected into the abdomen, the animals are transferred into dishes and stored in an air-conditioned room. The control of activity is carried out on a deposit of fertile eggs after 7 days. Eggs, the fertility of which was not visible externally, were stored in glass tubes in an incubator until larvae hatch after about 24 days. An activity of 100% means that no ticks laid fertile eggs.

[10] = tested on: larvae of the mustard leaf beetle (Phaedon cochleariae); test: Phaedon cochleariae test (spray treatment); details: 500 g/ha
Method: [table] To prepare a suitable active compound preparation 1 part by weight of the active compound is mixed with the given amount of solvent and emulsifier and the concentrate is diluted to the desired concentration with water containing emulsifier. Chinese cabbage leaf sections (Brassica pekinensis) are sprayed with an active compound preparation at the desired concentration and after drying are infected with larvae of the mustard leaf beetle (Phaedon cochleariae). After the desired time the activity in % is determined.

## CC1OC(=O)C=C1N(C)Cc1ccc(Cl)nc1 (stereo not drawn)
[1]
  pest or weed control at 500 g/ha: 100%

## CN(Cc1ccc(Cl)nc1)C1=CC(=O)CCC1
[1]
  pest or weed control at 500 g/ha: 90%

## O=C1C=C(N(Cc2ccc(Cl)nc2)C2CC2)CC1
[1]
  pest or weed control at 500 g/ha: 100%

## CN(Cc1ccc(Cl)cn1)C1=CC(=O)CC1
[2]
  Death rate in % after 6 d: 95%

## O=C1C=C(NCc2ccc(Cl)nc2)CCC1 [Compound 1]
[3]
  activity after 7 days: 100%
[1]
  activity after 5 days: 100%

## CCCN(Cc1ccc(Cl)nc1)C1=CC(=O)CCC1 [Compound 4]
[1]
  activity after 5 days: 100%

## C=CCN(Cc1ccc(Cl)nc1)C1=CC(=O)CCC1 [Compound 9]
[1]
  activity after 5 days: 100%

## C#CCN(Cc1ccc(Cl)nc1)C1=CC(=O)CCC1 [Compound 10]
[1]
  activity after 5 days: 100%

## Cn1c(NCc2ccc(Cl)nc2)cc(=O)n(C)c1=O [Compound 70]
[1]
  activity after 5 days: 100%

## CCN(Cc1ccc(Cl)nc1)C1=CC(=O)OC1 [Compound 85]
[4]
  Death rate in % after 7 d: 100%
[5]; spray on maize leaf sections, after 7 d
  Death rate in % after 7 d: 100%
[6]
  death rate after 2 days: 100%

## C=CCN(Cc1ccc(Cl)nc1)C1=CC(=O)OC1 [Compound 91]
[7]; 20 g/ha (so in the source), after 7 d
  Death rate in % after 7 d: 100%

## C#CCN(Cc1ccc(Cl)nc1)C1=CC(=O)OC1 [Compound 92]
[1]
  activity after 5 days: 100%

## CC(=O)N(Cc1ccc(Cl)nc1)C1=CC(=O)OC1 [Compound 94]
[1]
  activity after 5 days: 100%

## CON(Cc1ccc(Cl)nc1)C1=CC(=O)OC1 [Compound 98]
[1]
  activity after 5 days: 100%
[7]
  activity after 7 days: 100%
[6]
  death rate after 2 days: 100%

## CN(Cc1ccc(Cl)nc1)C1=C(F)C(=O)OC1 [Compound 104]
[6]
  death rate after 2 days: 100%

## CN(Cc1ccc(Cl)nc1)C1=CC(=O)SC1 [Compound 112]
[8]
  Death rate in % after 7 d: 100%

## CN(Cc1ccc(Br)nc1)C1=CC(=O)OC1 [Compound 121]
[5]; spray, after 7 days
  activity after 7 days: 100%
[1]
  activity after 5 days: 100%
[9]
  activity (no fertile eggs laid): 95%
[7]
  activity after 7 days: 100%
[6]
  death rate after 2 days: 100%

## O=C1C=C(N(Cc2ccc(F)nc2)C2CC2)CO1 [Compound 124]
[1]
  activity after 5 days: 100%

## CN(Cc1ccc(C(F)(F)F)nc1)C1=CC(=O)OC1 [Compound 125]
[1]
  activity after 5 days: 100%
[9]
  activity (no fertile eggs laid): 80%
[7]
  activity after 7 days: 100%
[6]
  death rate after 2 days: 90%

## O=C1C=C(N(Cc2ccc(C(F)(F)F)nc2)C2CC2)CO1 [Compound 126]
[1]
  activity after 5 days: 100%

## CN(Cc1cnc(Cl)s1)C1=CC(=O)OC1 [Compound 144]
[4]
  Death rate in % after 7 d: 99%

## CN(Cc1cccnc1)C1=CC(=O)OC1 [Compound 147]
[1]
  activity after 5 days: 100%

## CN(Cc1ccc(Cl)nc1)C1=CC(=O)CC1 [Compound 175]
[6]
  death rate after 2 days: 100%

## CN(Cc1ccc(Cl)nc1)C1=CC(=O)OC1 [drawing 472]
[1]
  pest or weed control at 500 g/ha: 100%

## CCN(Cc1ccc(Cl)nc1)C1=CC(=O)OC1 [drawing 473]
[1]
  pest or weed control at 500 g/ha: 90%

## CN(Cc1cnc(Cl)s1)C1=CC(=O)OC1 [drawing 474]
[1]
  pest or weed control at 500 g/ha: 100%

## O=C1C=C(NCc2ccc(Cl)nc2)CO1 [drawing 475]
[1]
  pest or weed control at 500 g/ha: 90%

## CN(Cc1ccc(Cl)nc1)C1=C(F)C(=O)OC1 [drawing 477]
[1]
  pest or weed control at 500 g/ha: 100%

## O=C1C=C(N(Cc2ccc(Cl)nc2)C2CC2)CO1 [drawing 478]
[1]
  pest or weed control at 500 g/ha: 100%

## C=CCN(Cc1ccc(Cl)nc1)C1=CC(=O)OC1 [drawing 479]
[1]
  pest or weed control at 500 g/ha: 100%

## CN(Cc1ccc(Cl)nc1)C1=CC(=O)CC1 [drawing 481]
[1]
  pest or weed control at 500 g/ha: 100%

## CN(Cc1ccc(Cl)nc1)C1=CC(=O)SC1 [drawing 483]
[1]
  pest or weed control at 500 g/ha: 80%

## CN(Cc1ccc(Cl)nc1)C1=CC(=O)OC1 [drawing 484]
[10]
  Death rate in % after 7 d: 100%

## CCN(Cc1ccc(Cl)nc1)C1=CC(=O)OC1 [drawing 485]
[10]
  Death rate in % after 7 d: 100%

## O=C1C=C(N(Cc2ccc(Cl)nc2)C2CC2)CO1 [drawing 486]
[10]
  Death rate in % after 7 d: 100%

## C=CCN(Cc1ccc(Cl)nc1)C1=CC(=O)OC1 [drawing 487]
[10]
  Death rate in % after 7 d: 67%

## CN(Cc1ccc(Cl)nc1)C1=CC(=O)OC1 [drawing 493]
[2]
  Death rate in % after 6 d: 100%

## O=C1C=C(NCc2ccc(Cl)nc2)CO1 [drawing 494]
[2]
  Death rate in % after 6 d: 98%

## C=CCN(Cc1ccc(Cl)nc1)C1=CC(=O)OC1 [drawing 495]
[2]
  Death rate in % after 6 d: 95%
